Measured values reported in patent publication US5652353A, “DNAs encoding tumor necrosis factor-α muteins” (priority 1990, dated 1997).

Test system: human p75-TNF-R versus human p55-TNF-R
Experiment: Selectivity factor S from competitive binding to p75-TNF-R and p55-TNF-R
Details: based on IC50 p75-TNF-R and IC50 p55-TNF-R (Table F, FIGS. 10A-10E)
Experimental: The filters were blocked with blocking buffer (50 mM Tris, 140 mM NaCl, 5 mM EDTA, 0.02% NaN3, 1% defatted milk powder) for 1.5 hours at room temperature. […] The filters were washed with blocking buffer (2× for 5 min.) and with H2 O (1× for 5 min.), air dried, and counted in a γ-counter.
After three hours at room temperature the wells were thoroughly washed with PBS and counted in a γ-counter.

Substance	selectivity factor S
Tyr^32 -TNFα: TNF-α mutein with tyrosine substituted at position 32, SEQ ID No: 10	90
Tyr^29 -TNFα: TNF-α mutein with tyrosine substituted at position 29, SEQ ID No: 6	110
